Test results: patent publication US20250011296A1, “MODULATORS OF MOLECULAR TARGETS EXPRESSED IN METABOLIC AND INFLAMMATORY DISORDERS” (Ohio State Innovation Foundation, priority 2021, published 2025)
pIC50: −log10 of the molar value. “Also recorded” adds a separate entry of the source. Like-named read-outs stand apart in the source and are kept apart here.

Legend:
PPAR-γ expression = assay: Larval diabetic zebrafish assay, Western blot of PPAR-γ; assay type: in vivo; details: diabetic zebrafish larvae, 10 μM
Protocol: Western blot analysis of zebrafish expression levels for glycated hemoglobin, metabolic enzymes, and molecular targets NFκB and PPAR-γ was performed to evaluate potential lead improvement and to discover possible mechanisms of action.
Wild-type zebrafish were sorted into 24-well microplates with 10 fish per well for a four-phase treatment cycle. At 72 hpf, type 2 diabetes was induced by administering 0.5 mg/mL alloxan in fish water for percutaneous absorption. […] At 78 hpf, the incubation solution was changed to 10 mg/ml D-glucose for 30 minutes, followed by a phase-four rinse in fresh system w Following the four-phase treatment cycle, zebrafish treatment groups were snap frozen in microcentrifuge tubes on dry ice, stored overnight at −80° C., thawed, and homogenized with 2 μL PBS per animal. Following centrifugation (60 minutes at 4° C. and 17,000 rpm), protein content of the homogenate supernatant was determined using the Pierce BCA Protein Assay kit (Pierce Biotechnology). Homogenates were analyzed by Western blot with equal amounts of total protein (20 μg) in each sample and using 4×LDS loading buffer (NuPAGE Life Technologies).
(§1) Electrophoresis was performed with NuPAGE MES SDS Running Buffer and using the XCell SureLock Mini-Cell Electrophoresis System (Life Technologies). Proteins separated on the gel were transferred to a PVDF membrane using TBST buffer. The blots were blocked in 3% BSA in TBST and subsequently probed overnight with primary antibodies (1:1000 in 1% BSA in TBST) against each target of interest. Following TBST rinses, secondary HRP-conjugated antibodies (1:2000) were applied to the membrane for 60 minutes. The HRP conjugated antibodies were detected using SuperSignal West Femto chemiluminescent substrate (Pierce Biotechnology) and immunoblot images were captured using the luminometer and Lumi Analyst 3.0 software.
(§2) Band densities were determined using ImageJ Gel Analysis to determine expression levels of each protein of interest. Expression levels of HbA1C, PPAR-γ, and NFκB were organized into a bar graphs (FIG. 5) with band densities calculated in comparison to the housekeeping gene β-actin, normalized to the untreated diabetic group (B) of zebrafish. […].

NFκB = biological target: T1, NFκB (Homo sapiens, UniProt Q04206); assay: NFκB assay (EZ-Detect Transcription Factor Assay kit; TNF-α-treated HeLa cells, nuclear extracts); assay type: cell-based
T1 construct: endogenous in cells; host or cells: HeLa cells (ATCC), nuclear extract
Protocol: To assess the ability of natural product extracts and compounds to inhibit the specific binding of activated NFκB transcription factor to the biotinylated consensus sequence, the EZ-Detect™ Transcription Factor Assay kit (Pierce Biotechnology) was used according to the kit manual and established protocol. HeLa cells (ATCC) were treated with each test sample and TNF-α, nuclear extracts harvested using the NE-PER kit (Pierce Biotechnology), and protein content equilibrated using the Pierce BCA Protein Assay kit (Pierce Biotechnology). Specific binding was detected through quantification of chemiluminescent signal in a plate reader (FLUOstar Optima, BMG Labtechnologies GmbH, Inc.).

PPAR-γ = biological target: T2, PPAR-γ (Homo sapiens, UniProt P37231); assay: PPAR-γ ELISA assay (PPAR-α,γ,δ Complete Transcription Factor Assay Kit; CCD-112CoN or Hela cells, nuclear extracts); assay type: cell-based
T2 construct: endogenous in cells; host or cells: CCD-112CoN normal colon cells or HeLa cells (ATCC), nuclear extract
T2 sequence (P37231 1-505): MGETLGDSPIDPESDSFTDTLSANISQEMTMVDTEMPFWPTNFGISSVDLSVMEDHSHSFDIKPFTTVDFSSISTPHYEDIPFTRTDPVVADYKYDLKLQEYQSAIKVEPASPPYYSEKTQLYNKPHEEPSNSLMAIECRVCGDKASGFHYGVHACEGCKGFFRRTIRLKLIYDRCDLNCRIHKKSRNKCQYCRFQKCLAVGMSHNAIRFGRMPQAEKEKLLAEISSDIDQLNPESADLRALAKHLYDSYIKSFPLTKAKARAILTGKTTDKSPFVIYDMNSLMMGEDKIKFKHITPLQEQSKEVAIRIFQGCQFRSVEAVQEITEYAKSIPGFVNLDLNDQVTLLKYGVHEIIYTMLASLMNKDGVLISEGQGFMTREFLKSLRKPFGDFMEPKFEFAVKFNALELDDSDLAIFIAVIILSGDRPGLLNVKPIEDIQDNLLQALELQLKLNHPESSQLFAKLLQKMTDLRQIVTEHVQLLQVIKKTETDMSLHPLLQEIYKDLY
Protocol: To evaluate the ability of natural product extracts and compounds to induce specific binding of PPAR-γ transcription factor in nuclear extracts to immunosorbed peroxisome proliferator response element, the PPAR-α,γ,δ Complete Transcription Factor Assay Kit (Cayman Chemical Company) was used according to the kit protocol. 303 CCD-112CoN normal colon cells or Hela cells (ATCC) were treated with mace extracts or isolated compounds for 24 h, nuclear extracts were harvested using the NE-PER kit (Pierce Biotechnology), and protein content equilibrated using the Pierce BCA Protein Assay kit (Pierce Biotechnology). Specific binding was detected through quantification of absorptivity at 630 nm in a BioTek uQuant microplate reader (BioTek Instruments, Inc.). […] Licarin A derivatives 45-48 were screened through the panel of in vitro assays to evaluate their potential as antidiabetic compound leads. […] Methods for the assay were as described above.

PEPCK expression = assay: Larval diabetic zebrafish assay, Western blot of PEPCK; assay type: in vivo; details: duplicate Western blot (FIG. 10), diabetic zebrafish larvae, 10 μM
Protocol: (§3) Following isolation, derivatization, and analysis of compounds 41-48 through the in vitro panel of assays, the mace natural products and licarin A derivatives were investigated in the larval diabetic zebrafish assay for potential antidiabetic activity. Western blot analysis of zebrafish expression levels for glycated hemoglobin, metabolic enzymes, and molecular targets NFκB and PPAR-γ was performed to evaluate potential lead improvement and to discover possible mechanisms of action.
(§4) Wild-type zebrafish were sorted into 24-well microplates with 10 fish per well for a four-phase treatment cycle. At 72 hpf, type 2 diabetes was induced by administering 0.5 mg/mL alloxan in fish water for percutaneous absorption. After three hours of alloxan treatment, phase two of the treatment cycle was initiated by administering 10 μM doses of natural product compounds 41-43 (FIG. 4) or derivatives 45-48 (FIG. 6) with 0.01% DMSO in system water. At 78 hpf, the incubation solution was changed to 10 mg/ml D-glucose for 30 minutes, followed by a phase-four rinse in fresh system w Following the four-phase treatment cycle, zebrafish treatment groups were snap frozen in microcentrifuge tubes on dry ice, stored overnight at −80° C., thawed, and homogenized with 2 μL PBS per animal. Following centrifugation (60 minutes at 4° C. and 17,000 rpm), protein content of the homogenate supernatant was determined using the Pierce BCA Protein Assay kit (Pierce Biotechnology). Homogenates were analyzed by Western blot with equal amounts of total protein (20 μg) in each sample and using 4×LDS loading buffer (NuPAGE Life Technologies). The immunoblot samples were heated at 95° C. for 5 minutes and loaded onto NuPAGE Bis-Tris 4-12% gradient SDS-PAGE gels.
as §1, §2

[1] = system: HbA1C (glycated hemoglobin) expression; assay: Larval diabetic zebrafish assay, Western blot of HbA1C; assay type: in vivo; details: duplicate Western blot (FIG. 7), diabetic zebrafish larvae, 10 μM
Protocol: as §3, §4, §1, §2

GLUT-4 expression = assay: Larval diabetic zebrafish assay, Western blot of GLUT-4; assay type: in vivo; details: duplicate Western blot (FIG. 11), diabetic zebrafish larvae, 10 μM
Protocol: as §3
Wild-type zebrafish were sorted into 24-well microplates with 10 fish per well for a four-phase treatment cycle. At 72 hpf, type 2 diabetes was induced by administering 0.5 mg/mL alloxan in fish water for percutaneous absorption. After three hours of alloxan treatment, phase two of the treatment cycle was initiated by administering 10 μM doses of natural product compounds 41-43 (FIG. 4) or derivatives 45-48 (FIG. 6) with 0.01% DMSO in system water. […] Following centrifugation (60 minutes at 4° C. and 17,000 rpm), protein content of the homogenate supernatant was determined using the Pierce BCA Protein Assay kit (Pierce Biotechnology). Homogenates were analyzed by Western blot with equal amounts of total protein (20 μg) in each sample and using 4×LDS loading buffer (NuPAGE Life Technologies). […]
(§5) Electrophoresis was performed with NuPAGE MES SDS Running Buffer and using the XCell SureLock Mini-Cell Electrophoresis System (Life Technologies). […] The HRP conjugated antibodies were detected using SuperSignal West Femto chemiluminescent substrate (Pierce Biotechnology) and immunoblot images were captured using the luminometer and Lumi Analyst 3.0 software.
as §2

NFκB p65 expression = assay: Larval diabetic zebrafish assay, Western blot of NFκB p65; assay type: in vivo; details: duplicate Western blot (FIG. 9), diabetic zebrafish larvae, 10 μM
Protocol: as §3
Wild-type zebrafish were sorted into 24-well microplates with 10 fish per well for a four-phase treatment cycle. […] Following centrifugation (60 minutes at 4° C. and 17,000 rpm), protein content of the homogenate supernatant was determined using the Pierce BCA Protein Assay kit (Pierce Biotechnology). Homogenates were analyzed by Western blot with equal amounts of total protein (20 μg) in each sample and using 4×LDS loading buffer (NuPAGE Life Technologies). […]
as §5, with “software. […]” for “software.”

[2] = Table 13, tested at 50, 5, 0.5 and 0.05 μg/mL
[3] = Table 20 summary, read-out: NFκBIC50
[4] = Table 19, licarin A derivatives at 50 μg/mL in Hela cells

T1 sequence (Q04206 whole entry): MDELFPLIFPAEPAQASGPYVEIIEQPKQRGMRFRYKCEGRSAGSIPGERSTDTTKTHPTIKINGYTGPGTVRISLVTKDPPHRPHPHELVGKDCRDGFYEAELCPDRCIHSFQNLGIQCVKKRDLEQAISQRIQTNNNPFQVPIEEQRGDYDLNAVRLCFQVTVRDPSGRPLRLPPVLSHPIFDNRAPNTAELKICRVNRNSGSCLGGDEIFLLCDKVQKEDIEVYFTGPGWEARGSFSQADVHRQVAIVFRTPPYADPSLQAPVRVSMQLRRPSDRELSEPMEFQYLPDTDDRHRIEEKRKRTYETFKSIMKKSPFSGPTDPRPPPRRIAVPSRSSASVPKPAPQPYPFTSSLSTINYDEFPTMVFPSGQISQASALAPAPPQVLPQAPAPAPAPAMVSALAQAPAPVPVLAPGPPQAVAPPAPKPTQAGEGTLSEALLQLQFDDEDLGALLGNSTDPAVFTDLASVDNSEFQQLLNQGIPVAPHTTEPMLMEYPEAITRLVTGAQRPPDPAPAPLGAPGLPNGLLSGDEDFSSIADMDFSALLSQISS

Structure (SMILES)	PPAR-γ expression (band density) (PPAR-γ expression; preliminary Western blot (FIG. 4/5))	pIC50 (NFκB; [2])	pIC50 (NFκB; [3])	pIC50 (NFκB; in vitro NFκB assay)	PPAR-γ % activation (PPAR-γ; Table 14, isolates at 50 μg/mL) [%]	PPAR-γ % activation (PPAR-γ; Table 20 summary, 50 μg/mL) [%]	PPAR-γ expression (band density) (PPAR-γ expression; duplicate Western blot (FIG. 8))	PEPCK expression (band density) (PEPCK expression)	HbA1C expression (band density) [1]	NFκB inhibitory activity in vitro (NFκB; HeLa cells)	GLUT-4 expression (band density) (GLUT-4 expression)	PPAR-γ % activation (PPAR-γ; [4]) [%]	NFκB p65 expression (band density) (NFκB p65 expression)	PPAR-γ activity in vitro (PPAR-γ; preliminary screening, 50 μg/mL)
C=CCc1cc(OC)c(O[C@H](C)[C@@H](O)c2ccc3c(c2)OCO3)c(OC)c1 [Compound 43, erythro-8,4′-oxyneolign-8′-ene]	greater PPAR-γ expression that 41	7.19	7.19	7.19	<50	<50	–	–	–	–	–	–	–	–
C/C=C/c1cc(OC)c2c(c1)[C@H](C)[C@@H](c1ccc(OC(=O)OCC)c(OC)c1)O2 [Compound 47, licarin A ethyl carbonate]	–	–	–	–	–	0	performed surprisingly well	retained low PEPCK expression	did not reduce HbA1C expression	only weak NFκB inhibitory activity	significantly increased capacities for glucose uptake	0	–	–
C/C=C/c1ccc(O[C@H](C)[C@@H](OC(C)=O)c2ccc3c(c2)OCO3)c(OC)c1 [Compound 44, maceneolignan J]	–	10.00	10.00	10.00	–	–	–	–	–	–	–	–	–	–
CCOC(=O)Oc1ccc([C@H]2Oc3c(OC)cc(C=O)cc3[C@@H]2C)cc1OC [Compound 48, licarin A formyl ethyl carbonate]	–	–	–	–	–	0	–	retained low PEPCK expression	did not reduce HbA1C expression	–	significantly increased capacities for glucose uptake	0	lower levels of NFκB	–
C/C=C/c1cc(OC)c2c(c1)[C@H](C)[C@@H](c1ccc(OC(C)C)c(OC)c1)O2 [Compound 45, isopropoxy-licarin A]	–	–	–	–	–	57	–	indicated a return to normoglycemia	did not reduce HbA1C expression	–	–	57	–	–
COc1cc([C@H]2Oc3c(OC)cc(C=O)cc3[C@@H]2C)ccc1OC(C)C [Compound 46, isopropoxy-licarin A carbaldehyde]	–	–	–	–	–	29	–	indicated a return to normoglycemia	most effective test samples for decreasing HbA1C; also recorded: significant reduction of HbA1C expression	–	–	29	lower levels of NFκB	no significant PPAR-γ activity in vitro
